Measurements from patent publication US11364244B2, “Compositions for treatment of muscular disorders” (ONCOCROSS CO., LTD., priority 2018, dated 2022).

What was measured:
[1] = system: mice transplanted with colorectal cancer cells CT26; assay: Cancer-associated muscle and fat reduction (CT26 transplant + 5-FU, MRI); format: in vivo, mouse; details: for fat mass / muscle mass: CT26 + 5-FU mice, treated alone or in combination, MRI every week
Method: Cancer-associated sarcopenia was induced by administering 5-FU (5-fluorouracil) as an anticancer agent to mice transplanted with colorectal cancer cells CT26. […] MRI was measured every week to determine muscle and fat changes in OC-501 and 504 alone and combination-treated groups (FIG. 19).

[2] = system: Mesenchymal stem cells; assay: Differentiation markers PAX7/MYF5 (Western blot) in stem cells isolated from cobratoxin-injured muscle; format: cell-based, mouse; details: OC-501 10 μM, OC-504 5 μM, individually or in combination; 4 days after the application
Method: Mesenchymal stem cells were isolated on day 3 after cobratoxin was inserted into the tibialis anterior muscle of the mouse. […] West blot analysis was performed using differentiation markers PAX7 (paired box protein-7) and MYF5 (Myogenic factor 5) antibodies. After the differentiation, cells were identified using a microscope (4× and 10× magnification).

[3] = system: tibialis anterior muscle of the mouse; assay: Early recovery of muscle fibers after cardiotoxin injury; format: in vivo; details: alone 30 mpk, combination each 15 or 30 mpk, 3 days after cardiotoxin
[4] = system: Mouse myoblast strain C2C12; assay: Myoblast differentiation (microscope; Western blot of myogenin and MHC); format: cell-based; details: for differentiation of myoblast (microscope): single component 500 nM up to 10 or 20 μM, 400 μM H2O2, 2% horse serum, 5 to 7 days
Method: (§1) Mouse myoblast strain C2C12 was dispensed into 12-well plates at 0.7×10^5 cells/well and then cultured to a cell density of 70 to 80%. […] Differentiation of the myoblast was induced for 5 to 7 days while the replacement of the medium occurred every other day. After the differentiation, cells were identified using a microscope (4× and 10× magnification), and cells were disrupted and then Western blot analysis was performed using differentiation markers myogenin and myosin heavy chain (MHC) antibodies.
(§2) Mouse myoblast strain C2C12 was dispensed into 12-well plates at 0.7×10^5 cells/well and then cultured to a cell density of 70 to 80%. The cells were then washed with PBS and then the medium was replaced with DMEM medium (differentiation medium) containing 2% horse serum, 400 μM H2O2, and harmol (OC-503) of 0 nM (DMSO), 500 nM, 1 μM, 2.5 μM, 5 μM, or 10 μM respectively. Differentiation of the myoblast was induced for 5 to 7 days while the replacement of the medium occurred every other day. After the differentiation, cells were identified using a microscope, and cells were disrupted, and then Western blot analysis was performed using differentiation markers myogenin and myosin heavy chain (MHC) antibodies.
as §2, with “H2O2, and calcium pantothenate (OC-504) of 0” for “H2O2, and harmol (OC-503) of 0”, “500 nM, 2.5 μM,” for “500 nM, 1 μM, 2.5 μM,”, “5 μM, 10 μM or 20” for “5 μM, or 10”, “μM or 20 μM respectively.” for “μM, or 10 μM respectively.”, “using a microscope (4× and 10× magnification), and cells” for “using a microscope, and cells”
as §1, with “disrupted,” for “disrupted”

[5] = system: Mouse myoblast strain C2C12; assay: Myoblast proliferation (MTT, OD 595 nm) under H2O2; format: cell-based; details: single component 250 nM-20 μM, 400 nM H2O2, 16 hours
Method: Mouse myoblast strain C2C12 was dispensed in 96-well plates at 1.5×10^3 cells/well, and then cultured in DMEM medium containing 10% fetal bovine serum (FBS) at 37° C. and 5% CO2 for one day at a low density manner. […] At 16 hours since the replacement, the wells were treated with MTT reagent and then the mouse myoblast strain C2C12 was incubated in the DMEM medium in a dark incubator for 3 hours. After removing supernatant therefrom and applying 100 μl of DMSO to the well, the optical density (OD) was measured at 595 nm. Cells were identified using a microscope.

[6] = anticancer drug administered to CT26-transplanted mice, MRI

How did the fat decrease [1, 6] turn out when `O=c1[nH]cc(F)c(=O)[nH]1` [5-FU, 5-fluorouracil] was run?
Its fat decrease is 95%.

And the muscle amount decrease [1, 6]?
The muscle amount decrease was “about 40%”.

For `CC(C)(CO)[C@@H](O)C(=O)NCCC(=O)O` [calcium pantothenate], which “expression of PAX7” value [2] is on record?
Its value is “increased”.

And the muscle fiber size [3]?
The muscle fiber size was “well sparred”.

And the “differentiation of myoblast (microscope)” value [4]?
Its value is “promoted differentiation of myoblast”.

And the “differentiation promotion (Western blot myogenin and MHC)” value (“differentiation promotion” for short) ([4]; single component at 5 μM)?
The value was “increased especially”.

What about the “differentiation promotion” value ([4]; single component at 10 μM) of the same compound?
The value was “increased especially”.

What about the myoblast proliferation [5] of the same compound?
Its myoblast proliferation is “not to promote myoblast proliferation”.

And the fat mass [1]?
The fat mass was “increased”.

And the muscle mass [1]?
Its muscle mass is “increased”.

`CN(C)CCOC(c1ccccc1)c1ccccc1.Cn1c(=O)c2[nH]c(Cl)nc2n(C)c1=O` [dimenhydrinate] was tested. Which muscle fiber size [3] did it give?
Its muscle fiber size is “well sparred”.

What about the “differentiation promotion” value ([4]; single component at 5 μM) of the same compound?
The value was “increased especially”.

And the fat mass [1]?
Its fat mass is “increased”.

What about the muscle mass [1] of the same compound?
The muscle mass was “increased”.

Which “differentiation of myoblast (microscope)” value [4] does the source give for harmol here?
Its value is “promoted differentiation of myoblast”.

And the “differentiation promotion” value ([4]; single component at 5 μM)?
The value was “increased especially”.

What about the “differentiation promotion” value ([4]; single component at 10 μM) of the same compound?
Its value is “increased especially”.

What about the myoblast proliferation [5] of the same compound?
The myoblast proliferation was “not to promote myoblast proliferation”.
